Where “and” joins values, the source holds several entries; their conditions need not be identical. Equal values may be shown once.
What was measured:
Assay type in all cases: cell-based
[1] = test system: endometrial (ECC-1 and KLE) and ovarian (HCH-1, OVCAR-3, and SKOV-3) cancer cell lines; test: MTS cell viability, gynecologic cancer cell line panel
Description: Cell lines, Culture, and Reagents. Cells were maintained in either DMEM (SKOV-3, KLE, OVCAR-3, OVCAR8-C5 and IGROV-1) or RPMI-1640 (ECC-1 and HCH-1), supplemented with 10% fetal calf serum (or 20% for OVCAR-3), penicillin (100 units/mL), and streptomycin (100 μg/mL) at 37° C. with 5% CO2 in a humidified incubator. Antibodies were purchased from Abcam (septin-2; ab179436) and Cell Signaling Technology; ERK (9102), p-ERK (4370), -actin (3700), u-Tubulin (2144), EGFR (4267) and HER2 (4290). FCF was purchased from Abcam. All other chemicals were from Sigma Aldrich. Synthesis of Derivaties. […] The reaction was monitored using thin-layer chromatography plates with DCM-MeOH or pure ethyl acetate as eluent. Spots were monitored in a UV chamber. The reaction mixture, upon completion of the reaction, was poured into wet ice mixture and triturated, then the separated solid was filtered by vacuum. The product was washed with hexane, followed by diethyl ether, and was dried under vacuum. The compounds were characterized by spectrophotometric techniques. Quantitative Real-Time PCR. The indicated cell lines were transfected with siRNA targeting septin-2 or non-targeting control siRNA (Santa Cruz Biotechnology: sc-37007 or sc-40936) using Lipofectamine 3000 (Invitrogen). Tri reagent and Direct-zol kit (Zymo Research) were used to lyse and isolate total RNA. Reverse transcription was performed using iScript cDNA synthesis kit (BioRad), both following the manufacturer's recommendations. Quantitative real-time PCR was conducted using QuantStudio 12 K Flex Real-Time PCR System (ABI) and the Taqman Gene Expression Assay (ABI) consisting of the FAM-labeled probes as follows: SEPT2 (Hs01565417_ml); WFDC2 (Hs00899484_ml); TBP (Hs00427620_ml) or B2M (Hs00187842_ml), which was used as reference for normalization. Cell Viability, Proliferation and Apoptosis Assay. Cell viability, proliferation, and cellular apoptosis were measured using the MTS (Promega), BrdU cell proliferation (Cell Signaling Technology), and Caspase-Glo 3/7 apoptosis detection (Promega) assays, following the respective manufacturer's recommendations with suitable modification. Enzyme-Linked Immunosorbent Assay (ELISA) and Immunoblotting. Cells were maintained overnight in the culture media described above. […] Following the treatment, cell lysates and supernatants were collected and subjected to HE4 assay (Human HE4 Quantikine ELISA Kit, R&D Systems). The amount of HE4 in supernatant was normalized to the protein concentration of matching cell lysate. The levels of HER2 were determined by Human Total ErbB2/Her2 DuoSet IC ELISA (R&D systems. Wester blot analysis was conducted using the protocol previously published (see Kim, K. K. et al. Tetrathiomolybdate inhibits mitochondrial complex IV and mediates degradation of hypoxia-inducible factor-1alpha in cancer cells. Sci. Rep. 5, 14296, 2015). Data Acquisition and Statistical Analysis. Gene expression profiling of septins, comparing microdissected normal ovarian stroma (N=8) against that of tumor stroma samples (N=31) from high grade serous ovarian cancer patients, was obtained from Mixed Ovarian Cancer (CAFs)-Wong-77-u133p2 data-set through ‘R2: Genomics Analysis and Visualization Platform (http://r2/am/n1). Mean values with SD were plotted and compared using Student t-test (two tail, unpaired heteroscedastic t-test, significant difference when p<0.01). The prognostic assessment of septin-2 amongst different cancers or septins in endometrial cancer was conducted using TCGA data acquired through Human Protein Atlas (http://www.proteinatlas.org) (see Uhlen, M. et al. Towards a knowledge-based Human Protein Atlas. Nat. Biotechnol. 28, 1248-1250, 2010). Survival curves between septin high and low population and their statistical significance were analyzed using GraphPad Prism software (Mantel-Cox test). […] Structural Modification of FCF. […]

[2] = test system: ECC-1 cells; test: BrdU cell proliferation assay; settings: ECC-1, 48 hours
Description: Cell lines, Culture, and Reagents. Cells were maintained in either DMEM (SKOV-3, KLE, OVCAR-3, OVCAR8-C5 and IGROV-1) or RPMI-1640 (ECC-1 and HCH-1), supplemented with 10% fetal calf serum (or 20% for OVCAR-3), penicillin (100 units/mL), and streptomycin (100 μg/mL) at 37° C. with 5% CO2 in a humidified incubator. Antibodies were purchased from Abcam (septin-2; ab179436) and Cell Signaling Technology; ERK (9102), p-ERK (4370), -actin (3700), u-Tubulin (2144), EGFR (4267) and HER2 (4290). FCF was purchased from Abcam. All other chemicals were from Sigma Aldrich. Synthesis of Derivaties. […] The reaction was monitored using thin-layer chromatography plates with DCM-MeOH or pure ethyl acetate as eluent. Spots were monitored in a UV chamber. The reaction mixture, upon completion of the reaction, was poured into wet ice mixture and triturated, then the separated solid was filtered by vacuum. The product was washed with hexane, followed by diethyl ether, and was dried under vacuum. The compounds were characterized by spectrophotometric techniques. Quantitative Real-Time PCR. The indicated cell lines were transfected with siRNA targeting septin-2 or non-targeting control siRNA (Santa Cruz Biotechnology: sc-37007 or sc-40936) using Lipofectamine 3000 (Invitrogen). […] Quantitative real-time PCR was conducted using QuantStudio 12 K Flex Real-Time PCR System (ABI) and the Taqman Gene Expression Assay (ABI) consisting of the FAM-labeled probes as follows: SEPT2 (Hs01565417_ml); WFDC2 (Hs00899484_ml); TBP (Hs00427620_ml) or B2M (Hs00187842_ml), which was used as reference for normalization. […] Cell viability, proliferation, and cellular apoptosis were measured using the MTS (Promega), BrdU cell proliferation (Cell Signaling Technology), and Caspase-Glo 3/7 apoptosis detection (Promega) assays, following the respective manufacturer's recommendations with suitable modification. […] Survival curves between septin high and low population and their statistical significance were analyzed using GraphPad Prism software (Mantel-Cox test). […]

[3] = test system: septin-6; test: Immunoblot of septin-6 expression; settings: 48 hours

SMILES	cell viability ([1]; FCF 0, 100, 300 μM, 24 or 72 hours, time- and dose-dependent (FIG. 1))	proliferation ([2]; BrdU, lower dose ranges)	viability of tumor cells, dose-dependent (FIG. 2E) ([1]; 72 hours, MTS)	proliferation in multiple endometrial and ovarian cancer cells ([1]; at considerably lower doses than FCF)	septin-6 protein expression levels (western blot) ([3]; MDA-MB-231, JIMT-1 and MCF-7 cells, 10 and 30 μM)	septin-6 expression (immunoblot) ([3]; PANC-1, 1.0 and 10.0 μM)	concentration inhibiting proliferation ([2]; BrdU (FIG. 2B))
O=C(Nc1ccccc1)Nc1ccnc(Cl)c1 [FCF, N-(2-chloro-4-pyridyl)-N′-phenylurea, reference compound]	reduced the viability	lacked activity					
O=C(Nc1cc(Cl)nc(Cl)c1)Nc1cccc(SC(F)(F)F)c1F [UR214-9]			potent activity across most cell lines	blocked proliferation	does not alter the protein expression levels	unaffected	~4 µM and 4 to 5 µM

Source: patent US12433876B2, “Septin inhibitors for treatment of cancers” (UNIVERSITY OF ROCHESTER, priority 2019, dated 2025)
